{"source": "patent US9504738B2", "about": "“Immunogenic epitopes, peptidomimetics, and anti-peptide antibodies, and methods of their use” (Ohio State Innovation Foundation, priority 2010, dated 2016)", "key": {"[1]": {"test_system": "TS/A cells (HER-2 negative)", "test": "Proliferation assay (MTT) of TS/A cells in presence of HRG", "format": "cell-based, mouse", "conditions": "HER-2 negative cell line", "protocol": "Proliferation assay. BT-474, SK-BR-3, MDA-468 and TS/A cells (1×10^4 were plated in 96-well flat-bottom plates overnight. Growth medium was replaced with low sera (1% FCS) medium and the cells were incubated overnight. Media were removed from the wells and replaced with low sera medium containing HER-2 and VEGF mimic peptides at concentrations ranging from 25-150 ug/ml and plates were incubated an additional 1 h at 37° C. before adding 10 ng/ml HRG in 1% medium. Plates were incubated for an additional 72 h at 37° C. before adding MTT (5 mg/ml) to each well. Plates were incubated 2 h at 37° C., and 1000 of extraction buffer (20% SDS, 50% dimethylformamide (pH 4.7)) was added to each well. Plates incubated overnight at 37° C. and read on an ELISA reader at 570 nm with 655 nm background subtraction Inhibition percentage was calculated as 100%×(Untreated cells-Peptide treated cells)/(Untreated cells).\nAntiproliferative effects of peptides. The antiproliferative effects of the peptides were tested using four different cell lines (Bt-474 and SK-BR-3: HER-2^high, MDA-468: HER-2^low and TS/A: HER-2^negative) (FIGS. 13A-13D) in the presence of HRG to activate the HER-3 receptor. […] The cells were incubated with the peptides before being exposed to HRG."}, "HER-2": {"biological_target": "T1, HER-2 (Homo sapiens, UniProt P04626)", "T1 construct": "The human breast tumor cell lines BT-474 were purchased from American Type Culture Collection; host or cells: BT-474", "test": "HER-2 phosphorylation assay in BT-474 cells, peptides (Duoset IC human phospho-ErbB2)", "format": "cell-based", "conditions": "peptides then HRG 10 min", "experimental": "Phosphorylation assay. 1×10^6 BT-474 cells were plated in each well of a six well plate and incubated overnight at 37° C. Culture medium was removed and the cell layer washed once with PBS low score (1% FCS). Culture medium was added to the wells and plates incubated overnight. Cells were washed and 50 ug of peptides, anti-peptide Abs and controls in binding buffer (0.2% w/v BSA, RPMI 1640 medium with 10 mM HEPES (pH 7.2) was added to the wells and incubated at room temperature for 1 h. HRG (5 nM/well) was added and the incubation continued for 10 min. Binding buffer was removed and the cell layer washed once with PBS before adding 1 ml of RIPA lysis buffer (Santa Cruz Biotechnology, Santa Cruz, Calif.). Plates were rocked at 4° C. for 2 h. Lysates were removed, spun at 13000×g and supernatants collected. Protein concentration of each sample was measured by Coomassie plus protein assay reagent kit and lysates were stored at −80° C. Phosphorylation was determined by Duoset IC for human phosphor-ErbB2 according to the manufacturer's directions (RSD Systems).\nPeptide inhibition of Phosphorylation. The main mode of action of Pertuzumab is to inhibit phosphorylation. This is due to the fact that it sterically blocks the dimerization domain of HER-2 thereby preventing the formation of dimers with other HER receptors and thus interrupting downstream signaling. […]"}, "VEGFR-2": {"biological_target": "T2, VEGFR-2 (Homo sapiens, UniProt P35968)", "T2 construct": "host or cells: 293/KDR cells", "T2 sequence (P35968 20-1356)": "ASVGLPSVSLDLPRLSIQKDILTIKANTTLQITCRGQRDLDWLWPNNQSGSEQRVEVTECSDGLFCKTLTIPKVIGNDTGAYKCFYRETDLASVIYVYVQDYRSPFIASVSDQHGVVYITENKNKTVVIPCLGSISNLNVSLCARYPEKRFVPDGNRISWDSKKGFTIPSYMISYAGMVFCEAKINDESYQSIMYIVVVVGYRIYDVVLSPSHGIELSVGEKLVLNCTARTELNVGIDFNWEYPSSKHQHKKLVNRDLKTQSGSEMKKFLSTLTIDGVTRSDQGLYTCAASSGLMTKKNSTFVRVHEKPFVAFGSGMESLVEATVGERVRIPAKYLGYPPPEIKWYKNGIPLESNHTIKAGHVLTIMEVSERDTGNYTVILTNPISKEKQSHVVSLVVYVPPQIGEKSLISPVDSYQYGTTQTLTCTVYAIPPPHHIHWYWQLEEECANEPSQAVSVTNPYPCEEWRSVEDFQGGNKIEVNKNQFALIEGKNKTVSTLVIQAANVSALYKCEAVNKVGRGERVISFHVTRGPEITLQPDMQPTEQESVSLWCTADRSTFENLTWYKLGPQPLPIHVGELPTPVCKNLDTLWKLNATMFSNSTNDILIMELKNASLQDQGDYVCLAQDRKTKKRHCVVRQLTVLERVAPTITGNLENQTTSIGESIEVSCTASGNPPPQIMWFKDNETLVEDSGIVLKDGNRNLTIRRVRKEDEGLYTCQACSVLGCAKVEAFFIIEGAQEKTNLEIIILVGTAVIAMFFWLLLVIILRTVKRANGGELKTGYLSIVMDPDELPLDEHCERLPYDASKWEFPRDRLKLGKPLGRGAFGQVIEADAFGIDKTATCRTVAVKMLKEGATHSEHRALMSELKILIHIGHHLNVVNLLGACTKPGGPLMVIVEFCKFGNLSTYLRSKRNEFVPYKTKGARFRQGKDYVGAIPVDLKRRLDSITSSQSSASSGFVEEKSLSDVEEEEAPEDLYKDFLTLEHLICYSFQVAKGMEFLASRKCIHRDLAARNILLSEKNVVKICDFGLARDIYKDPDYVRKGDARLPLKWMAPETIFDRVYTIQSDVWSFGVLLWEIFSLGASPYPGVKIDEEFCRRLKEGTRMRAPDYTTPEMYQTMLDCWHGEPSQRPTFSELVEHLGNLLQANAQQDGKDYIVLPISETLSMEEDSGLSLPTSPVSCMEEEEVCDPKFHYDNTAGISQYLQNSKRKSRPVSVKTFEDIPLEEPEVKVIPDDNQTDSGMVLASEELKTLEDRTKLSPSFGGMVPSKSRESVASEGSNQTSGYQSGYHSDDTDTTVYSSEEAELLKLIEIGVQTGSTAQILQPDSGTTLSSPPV", "test": "VEGFR-2 phosphorylation in 293/KDR cells, quantified with Human Phospho-VEGF R2/KDR DuoSet IC kit", "format": "cell-based", "conditions": "293/KDR cells stimulated with rhVEGF; control (only rhVEGF) taken as 100%", "experimental": "293/KDR cells (5×10^5 cells/well) were seeded on 6-well plates in DMEM medium supplemented with 10% FBS. After overnight incubation in starving medium (no FBS) cells were stimulated with rhVEGF for 5 min. Cells were washed in cold PBS supplemented with 1 mM sodium orthovanadate and harvested into RIPA lysis buffer (Santa Cruz Biotechnology, Santa Cruz, Calif.) and incubated on ice for 30 min and cell lysate was collected after centrifugation at 13000 rpm for 10 min. Cell lysate was kept at −80° C. until used for Western blotting detecting phosphoro-KDR and total KDR as described above.\nConformational VEGF mimic peptide prevents VEGFR-2 phosphorylation. VEGFR-2 (also known as […] or KDR) has been characterized as a tyrosine receptor type III. VEGFR-2 activation is promoted by dimerization upon VEGF binding. VEGFR-2 contains several tyrosine residues that can be phosphorylated, triggering several pathways such as proliferation, migration and survival in the endothelial cells. […] All three VEGF mimic peptides were able to decrease the level of receptor phosphorylation (FIG. 5); however, the inhibitory effect was unable to be quantified, due to the limited detection of VEGFR-2 in the Western blotting. […] The percentage of inhibition was calculated assuming the phosphorylation level of control (only rhVEGF) was 100% and the results are represented in FIG. 6B."}, "[2]": {"biological_target": "T3, extracellular domain of VEGFR-2 (KDR-Fc) (Homo sapiens, UniProt P35968)", "T3 construct": "the extracellular domain of VEGFR-2(KDR-Fc) was injected as ligand; Fc; purchased R&D System", "T3 sequence (P35968 20-764 limits assumed)": "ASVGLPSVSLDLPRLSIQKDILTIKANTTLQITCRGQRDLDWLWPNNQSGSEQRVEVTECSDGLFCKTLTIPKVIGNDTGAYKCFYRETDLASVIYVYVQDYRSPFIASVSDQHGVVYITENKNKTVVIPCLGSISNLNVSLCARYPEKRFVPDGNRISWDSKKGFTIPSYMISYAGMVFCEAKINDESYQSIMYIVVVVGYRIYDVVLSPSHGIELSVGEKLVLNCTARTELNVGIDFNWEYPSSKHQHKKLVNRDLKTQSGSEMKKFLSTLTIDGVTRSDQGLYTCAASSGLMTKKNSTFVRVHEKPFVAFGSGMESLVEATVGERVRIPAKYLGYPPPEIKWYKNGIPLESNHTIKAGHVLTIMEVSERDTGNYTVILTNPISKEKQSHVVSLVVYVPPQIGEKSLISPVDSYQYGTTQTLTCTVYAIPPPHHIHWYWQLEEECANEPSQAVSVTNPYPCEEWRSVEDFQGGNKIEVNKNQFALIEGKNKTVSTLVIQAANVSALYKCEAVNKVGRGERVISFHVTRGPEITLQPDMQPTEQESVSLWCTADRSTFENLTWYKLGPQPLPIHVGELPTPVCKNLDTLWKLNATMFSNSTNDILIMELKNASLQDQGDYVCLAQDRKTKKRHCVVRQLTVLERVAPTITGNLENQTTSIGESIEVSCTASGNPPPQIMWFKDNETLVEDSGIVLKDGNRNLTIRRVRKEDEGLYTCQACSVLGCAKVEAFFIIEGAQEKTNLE", "test": "Surface plasmon resonance (BIAcore 3000): KDR-Fc injected over immobilized VEGF mimic peptides", "conditions": "peptide immobilized on CM5 chip, 1:1 (Langmuir) model, read-out: equilibrium binding constant (KD), binding affinity", "experimental": "Surface Plasma Resonance. Binding assays were performed using a Biacore 3000 instrument (Pharmacia Bio-sensor, Uppsala, Sweden). The experiments were performed at room temperature using HBS-EP buffer (25 mM HEPES, pH 7.4, […], 3.4 mM EDTA, and 0.005% surfactant P20). Peptides were coupled onto CM5 chip surfaces at 10 μL/min using a standard amine coupling protocol with EDC (N-ethyl-N′-[dimethylaminopropyl]carbodiimide)/NHS (N-hydroxysuccinimide). KDR-Fc (R&D System) at several concentrations in HBS-EP buffer. Was injected at a flow rate of 10 μL/min. Data analysis was performed with BIAsimulation software version 3.1 (Pharmacia Biosensor). […] To obtain measurement of anti-peptides binding affinities similar a experiment was carried out, but rhVEGF was immobilized onto CM5 chip surface and anti-peptides were injected at several concentrations.\nConformational VEGF mimic peptide binds to VEGFR-2. Binding assay was carried out using BIAcore 3000 instrument. Designed VEGF mimic peptide VEGF-P3 (NC) and (CYC) were immobilized onto chip CM5 and the extracellular domain of VEGFR-2(KDR-Fc) was injected as ligand. […] Global analysis was performed with data points fitting to a simple 1:1 (Langmuir) binding model. The equilibrium binding constant (KD) takes Ka and Kd values in consideration and represents the binding affinity. […]"}, "HUVEC": {"test_system": "HUVEC", "test": "Scratch wound assay (HUVEC migration)", "format": "cell-based, human", "conditions": "stimulated with 50 ng/ml rhVEGF, 16 h", "experimental": "Scratch Wound Assay. HUVEC were cultured on 0.1% gelatin coated 24-well plates. Confluent cells were incubated overnight with starving media, then they were scraped using sterilized 200-μl pipette tips and stimulated with 50 ng/ml of rhVEGF with or without VEGF mimic peptides for 16 h at 37° C. Cells were fixed and images were captured immediately at 40× magnification from light microscopy and cells that migrated to the scraped area were counted using imageJ software.\nVEGF mimic peptides inhibit cell migration in a Scratch Wound Assay. New blood vessel formation requires that the endothelial cells migrate towards the sources of growth factor. […] We used the scratch wound assay with HUVEC to observe the ability of the VEGF mimic peptides in inhibiting endothelial cell migration. […] Growth conditions (medium supplemented with 20% FBS and endothelial cell growth supplements)."}, "[3]": {"test": "Active immunization of rabbits, antibody titers by ELISA", "format": "in vivo, rabbit", "conditions": "outbred rabbits, MVF chimeric peptide", "experimental": "Active immunization and Ab purification. Mice and rabbits were immunized subcutaneously at multiple sites with a total of 1 mg (rabbits) or 100 μg (mice) of peptide dissolved in ddH2O emulsified (1:1) in Montanide ISA720 vehicle (Seppic) with 100 μg of N-acetylglucosamine-3-yl-acetyl-1-alanyl-d-isoglutamine (nor-MDP). Balb/c mice. Rabbits and mice were boosted with the respective doses at 3 week intervals. Rabbit blood was collected via the central auricular artery and sera tested for antibody titers. Anti-peptide antibodies were purified by affinity chromatography using a Protein A/G column (Pierce) from high titer antibody sera.\nELISA. Antibody titers were determined as previously described and it is defined as the reciprocal of the highest serum dilution with an absorbance of 0.2 or greater after subtracting the background.\nAntigenicity and Immunogenicity of Peptides. Earlier studies in our lab have shown that the MVF-HER-2-266 was highly immunogenic in both rabbits and mice. […] We had to do up to six immunizations with the D-amino acid peptide before we could obtain higher abs titers while with the L-amino acids only four immunization are enough to produce higher titers. We therefore used the abs raised against these peptides to test their effects on cancer cells in vitro."}}, "note": "Ends that are not written are not given here."}
{"molecule": "LHCPALVTYNTDTFESMPNPEGRYTFGASCV [HER-2-266-296]", "values": [{"measurement": "antiproliferative effect on TS/A cells", "setting": "[1]", "value": "inhibitory effects"}, {"measurement": "inhibition rate of HER-2 phosphorylation", "setting": "HER-2", "value": 38, "unit": "%"}]}
{"molecule": "ITMQIMRIKPHQGQHIGEMSF [VEGF 102-122]", "values": [{"measurement": "inhibition of VEGFR-2 phosphorylation", "setting": "VEGFR-2", "value": 4, "unit": "%"}, {"measurement": "Kd", "setting": "[2]", "value": 45, "unit": "nM"}]}
{"molecule": "CC(C)c1cc(/C=C(\\C#N)C(=O)NCCCc2ccccc2)cc(C(C)C)c1O", "note": "[SU1498]", "values": [{"measurement": "inhibition of HUVEC migration", "setting": "HUVEC", "value": "approximately 50%"}]}
{"molecule": "NH2-D[FSMECIMIKPHQGQHIGCQMTI]-COOH [VEGF-P4-CYC]", "values": [{"measurement": "immunogenicity (antibody titers)", "setting": "[3]", "value": "immunogenic"}, {"measurement": "inhibition rate of HER-2 phosphorylation", "setting": "HER-2", "value": 39, "unit": "%"}]}
